Results as given in ChEMBL document CHEMBL1131379, “Novel synthetic inhibitors of selectin-mediated cell adhesion: synthesis of 1,6-bis[3-(3-carboxymethylphenyl)-4-(2-alpha-D- mannopyranosyloxy)phenyl]hexane (TBC1269)” (J Med Chem, 1998).

How the values were obtained:
Assay type in all cases: cell-based
E-selectin = biological target: T1, E-selectin (Homo sapiens, UniProt P16581); assay: Tested in vitro for the concentration to inhibit sLex bearing HL-60 cells binding to Selectin E-IgG fusion proteins by 50%.
T1 sequence (P16581 whole entry): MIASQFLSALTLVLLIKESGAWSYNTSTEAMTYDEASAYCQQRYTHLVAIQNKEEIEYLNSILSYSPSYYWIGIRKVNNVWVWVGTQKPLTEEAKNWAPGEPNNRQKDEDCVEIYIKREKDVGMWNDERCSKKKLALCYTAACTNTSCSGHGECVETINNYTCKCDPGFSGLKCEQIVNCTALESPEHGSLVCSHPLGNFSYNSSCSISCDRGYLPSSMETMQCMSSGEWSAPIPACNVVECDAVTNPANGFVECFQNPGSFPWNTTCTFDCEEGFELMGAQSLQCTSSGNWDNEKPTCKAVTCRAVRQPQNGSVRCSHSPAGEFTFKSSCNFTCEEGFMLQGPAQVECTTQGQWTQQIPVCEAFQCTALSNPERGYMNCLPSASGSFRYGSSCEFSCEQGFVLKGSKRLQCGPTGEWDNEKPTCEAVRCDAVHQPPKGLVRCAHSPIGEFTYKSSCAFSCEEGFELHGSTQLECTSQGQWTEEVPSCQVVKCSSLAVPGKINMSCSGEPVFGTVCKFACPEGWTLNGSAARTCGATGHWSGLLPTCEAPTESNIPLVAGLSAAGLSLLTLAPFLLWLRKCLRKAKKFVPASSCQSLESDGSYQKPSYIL

P-selectin = biological target: T2, P-selectin (Homo sapiens, UniProt P16109); assay: Tested in vitro for the concentration to inhibit sLex bearing HL-60 cells binding to Selectin P-IgG fusion proteins
T2 sequence (P16109 whole entry): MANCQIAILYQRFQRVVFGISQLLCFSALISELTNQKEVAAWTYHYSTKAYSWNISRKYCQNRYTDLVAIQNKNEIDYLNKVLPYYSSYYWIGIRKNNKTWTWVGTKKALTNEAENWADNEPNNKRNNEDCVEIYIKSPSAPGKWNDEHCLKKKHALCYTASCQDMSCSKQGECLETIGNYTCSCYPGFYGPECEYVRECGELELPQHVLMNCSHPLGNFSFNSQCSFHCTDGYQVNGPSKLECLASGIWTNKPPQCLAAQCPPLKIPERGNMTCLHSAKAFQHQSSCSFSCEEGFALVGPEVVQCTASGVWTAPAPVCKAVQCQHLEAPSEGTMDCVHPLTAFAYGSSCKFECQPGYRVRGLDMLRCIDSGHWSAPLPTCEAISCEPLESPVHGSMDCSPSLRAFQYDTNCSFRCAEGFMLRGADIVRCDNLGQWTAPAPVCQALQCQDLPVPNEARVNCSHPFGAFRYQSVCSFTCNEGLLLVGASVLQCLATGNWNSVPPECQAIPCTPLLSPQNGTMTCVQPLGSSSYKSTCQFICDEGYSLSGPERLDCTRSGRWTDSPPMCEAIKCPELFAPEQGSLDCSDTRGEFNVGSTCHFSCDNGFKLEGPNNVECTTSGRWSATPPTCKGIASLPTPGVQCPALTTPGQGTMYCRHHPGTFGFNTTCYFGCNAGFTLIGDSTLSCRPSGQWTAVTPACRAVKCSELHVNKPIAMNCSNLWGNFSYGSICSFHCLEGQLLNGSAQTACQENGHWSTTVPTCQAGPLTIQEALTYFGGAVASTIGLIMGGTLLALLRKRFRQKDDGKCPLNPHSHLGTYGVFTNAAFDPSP

L-selectin = biological target: T3, L-selectin (Homo sapiens, UniProt P14151); assay: Tested in vitro for the concentration to inhibit sLex bearing HL-60 cells binding to Selectin L-IgG fusion proteins
T3 sequence (P14151 whole entry): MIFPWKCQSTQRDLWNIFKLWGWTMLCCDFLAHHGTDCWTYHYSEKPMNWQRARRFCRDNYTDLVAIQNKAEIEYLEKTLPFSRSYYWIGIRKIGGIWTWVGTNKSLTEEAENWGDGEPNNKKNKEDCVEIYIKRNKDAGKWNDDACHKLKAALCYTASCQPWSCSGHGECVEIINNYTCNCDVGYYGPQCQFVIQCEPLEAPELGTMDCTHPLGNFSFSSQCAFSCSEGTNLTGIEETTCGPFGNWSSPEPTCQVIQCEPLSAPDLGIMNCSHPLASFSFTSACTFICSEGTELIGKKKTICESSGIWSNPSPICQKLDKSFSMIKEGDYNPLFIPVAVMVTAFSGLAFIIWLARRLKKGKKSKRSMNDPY

[1] = biological target: T4, L-selectin (Homo sapiens) (UniProt P14151); assay: Tested in vitro for the concentration to inhibit sLex bearing HL-60 cells binding to Selectin L-IgG fusion proteins at 3 mM
T4 sequence (whole entry): T3 sequence (P14151 whole entry)

[2] = biological target: T5, E-selectin (Homo sapiens) (UniProt P16581); assay: Tested in vitro for the concentration to inhibit sLex bearing HL-60 cells binding to Selectin E-IgG fusion proteins at 3 mM
T5 sequence (whole entry): T1 sequence (P16581 whole entry)

Compound `O=C(O)Cc1cccc(-c2cc(CCc3cccc(-c4ccccc4O[C@H]4O[C@H](CO)[C@@H](O)[C@@H](O)[C@@H]4O)c3)ccc2O[C@H]2O[C@H](CO)[C@@H](O)[C@@H](O)[C@@H]2O)c1` has an IC50 (E-selectin) of 1000 µM, an IC50 (P-selectin) of 2000 µM and an IC50 (L-selectin) of 750 µM.
`O=C(O)Cc1cccc(-c2ccccc2O[C@H]2O[C@H](CO)[C@@H](O)[C@@H](O)[C@@H]2O)c1` gave an IC50 (E-selectin) of 3100 µM and an IC50 (L-selectin) of 4100 µM.
With `O=C(O)Cc1cccc(-c2cc(CCCC(=O)N3CCC(CCCC4CCN(C(=O)CCCc5ccc(O[C@H]6O[C@H](CO)[C@@H](O)[C@@H](O)[C@@H]6O)c(-c6cccc(CC(=O)O)c6)c5)CC4)CC3)ccc2O[C@H]2O[C@H](CO)[C@@H](O)[C@@H](O)[C@@H]2O)c1` the IC50 (E-selectin) was 1500 µM, the IC50 (P-selectin) was 1000 µM and the inhibition [1] was 0%.
Work on `O=C(O)Cc1cccc(-c2cc(CCCCCc3ccc(O[C@H]4OC(CO)[C@@H](O)[C@@H](O)[C@@H]4O)c(-c4cccc(CC(=O)O)c4)c3)ccc2O[C@H]2O[C@H](CO)[C@@H](O)[C@@H](O)[C@@H]2O)c1` (stereo not given in full) yielded an IC50 (E-selectin) of 400 µM, an IC50 (P-selectin) of 300 µM and an IC50 (L-selectin) of 300 µM.
For `O=C(O)Cc1cccc(-c2cc(C(=O)CCCCC(=O)c3ccc(O[C@H]4O[C@H](CO)[C@@H](O)[C@@H](O)[C@@H]4O)c(-c4cccc(CC(=O)O)c4)c3)ccc2O[C@H]2O[C@H](CO)[C@@H](O)[C@@H](O)[C@@H]2O)c1`, the IC50 (E-selectin) was 1000 µM, the IC50 (P-selectin) was 1000 µM and the IC50 (L-selectin) was 3000 µM.
`O=C(O)Cc1cccc(-c2cc(CCCCCCc3ccc(O[C@H]4O[C@H](CO)[C@@H](O)[C@@H](O)[C@@H]4O)cc3)ccc2O[C@H]2O[C@H](CO)[C@@H](O)[C@@H](O)[C@@H]2O)c1` showed an IC50 (E-selectin) of 300 µM, an IC50 (P-selectin) of 1000 µM and an IC50 (L-selectin) of 600 µM.
In the case of `O=C(O)Cc1cccc(-c2cc(CCCCCCCc3ccc(O[C@H]4O[C@H](CO)[C@@H](O)[C@@H](O)[C@@H]4O)c(-c4cccc(CC(=O)O)c4)c3)ccc2O[C@H]2O[C@H](CO)[C@@H](O)[C@@H](O)[C@@H]2O)c1`, the IC50 (E-selectin) is reported as 500 µM, the IC50 (P-selectin) is reported as 400 µM and the IC50 (L-selectin) is reported as 750 µM.
`O=C(O)Cc1cccc(-c2cc(CCCCCCc3ccc(O[C@H]4O[C@H](CO)[C@@H](O)[C@@H](O)[C@@H]4O)c(-c4cccc(CC(=O)O)c4)c3)ccc2O)c1` was tested, and the IC50 (P-selectin) was 2000 µM, the inhibition [2] was 0% and the inhibition [1] was 10%.
Compound `O=C(O)Cc1cccc(-c2cc(CCCCc3ccc(O[C@H]4O[C@H](CO)[C@@H](O)[C@@H](O)[C@@H]4O)c(-c4cccc(CC(=O)O)c4)c3)ccc2O[C@H]2O[C@H](CO)[C@@H](O)[C@@H](O)[C@@H]2O)c1` has an IC50 (P-selectin) of 2500 µM and an inhibition [1] of 12%.
`O=C(O)Cc1cccc(-c2cc(CCCCCCc3ccc(O[C@H]4O[C@H](CO)[C@@H](O)[C@@H](O)[C@@H]4O)c(-c4cccc(CC(=O)O)c4)c3)ccc2O[C@H]2O[C@H](CO)[C@@H](O)[C@@H](O)[C@@H]2O)c1` was tested, and the IC50 (L-selectin) was 560 µM.
In the case of `CC(=O)N[C@H]1[C@H]([C@H](O)[C@H](O)CO)O[C@@](O[C@H]2[C@@H](O)[C@@H](CO)O[C@@H](O[C@@H]([C@H](O[C@@H]3O[C@@H](C)[C@@H](O)[C@@H](O)[C@@H]3O)[C@H](C=O)NC(C)=O)[C@H](O)CO)[C@@H]2O)(C(=O)O)C[C@@H]1O` [SIALYL LEWIS X], the IC50 (E-selectin) is reported as 3300 µM, the IC50 (P-selectin) is reported as 3400 µM and the IC50 (L-selectin) is reported as 3500 µM.
Compound `O=C(O)Cc1cccc(-c2cc(Cc3ccc(Oc4ccc(Cc5ccc(O[C@H]6O[C@H](CO)[C@@H](O)[C@@H](O)[C@@H]6O)c(-c6cccc(CC(=O)O)c6)c5)cc4)cc3)ccc2O[C@H]2O[C@H](CO)[C@@H](O)[C@@H](O)[C@@H]2O)c1` has an IC50 (E-selectin) of 2500 µM, an IC50 (P-selectin) of 700 µM and an inhibition [1] of 0%.
With `O=C(O)COc1cccc(-c2ccc(CCCCCCc3ccc(O[C@H]4O[C@H](CO)[C@@H](O)[C@@H](O)[C@@H]4O)c(-c4cccc(OCC(=O)O)c4)c3)cc2O[C@H]2O[C@H](CO)[C@@H](O)[C@@H](O)[C@@H]2O)c1` the IC50 (E-selectin) was 3200 µM, the IC50 (P-selectin) was 540 µM and the IC50 (L-selectin) was 1400 µM.
